Results on nine molecules are retold here after ChEMBL document CHEMBL1201862, “PubChem BioAssay data set” (2004).

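Growth conditions: 96-well plates. Treatment: test compound, 48 hours, 5 concentrations. Analysis: linear interpolation between bracketing concentrations; unreached endpoints set to highest concentration. GI50 marks 50% less growth.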 Active and inactive are the calls of the source. No stated cut-off is given here; in the data, active = GI50 up to about 1.1 µM and inactive = higher. Some results are limits rather than exact numbers.

Holding throughout (test): NCI anticancer screen, dose series, 48 h
The test system of test [1] is HCC 2998.
For test [2], the system named is RXF 393.
Test [3] relates to NCI-H23.
Test [4] deals with OVCAR-8.
Test [5] relates to IGROV-1.
The subject of test [6] is KM-20L2.
The subject of test [7] is A498.
Test [8] deals with SF-295.
For test [9], the system named is NCI/ADR-RES.
In test [10] the test system is OVCAR-3.
Test [11] relates to HOP-62.
Test [12] deals with SNB-19.
In test [13] the test system is NCI-H522.
Test [14] deals with SNB-75.
The subject of test [15] is EKVX.
For test [16], the system named is ACHN.
Test [17] deals with CAKI-1.

`Cc1cc(/N=N/c2ccc(/N=N/c3c(O)c(S(=O)(=O)O)cc4cc(S(=O)(=O)O)ccc34)cc2C)ccc1/N=N/c1ccc2cc(S(=O)(=O)O)cc(S(=O)(=O)O)c2c1`: the GI50 in test [1] was > 100 µM (inactive); in test [2], > 100 µM (inactive); in [3], > 100 µM (inactive); in test [4] it was > 31.6 µM (inactive); in test [5] it was > 100 µM (inactive); in [6], 54.8 µM (inactive). Also, the GI50 in test [7] was > 100 µM (inactive); in [8], > 77.1 µM (inactive); in test [9], > 100 µM (inactive); in test [10] it was > 100 µM (inactive); in test [11], > 100 µM (inactive); in test [12], > 100 µM (inactive). The GI50 in test [13], in test [14] and in test [15] was > 100 µM (inactive) each time.
As for `CCc1ccccc1NC(=O)C1=C(C)NC(C)=C(C(=O)Nc2ccccc2CC)C1c1ccccc1Cl`, the GI50 in test [1] is > 100 µM (inactive); in test [16], 47.4 µM (inactive); in [2], > 100 µM (inactive); in test [3], > 100 µM (inactive); in test [4], > 100 µM (inactive); in [5], > 100 µM (inactive). Moreover, the GI50 in test [6] is > 100 µM (inactive); in test [7], 18.7 µM (inactive); in test [17] it was > 100 µM (inactive); in test [8] it was > 100 µM (inactive); in [10], > 100 µM (inactive); in test [11], > 100 µM (inactive). Moreover, the GI50 in test [12] was > 100 µM (inactive); in [13] it was 69.5 µM (inactive); in test [14], 71.6 µM (inactive); in test [15], > 100 µM (inactive).
`O=C1C(=O)N(c2ccc(Cl)c(Cl)c2)C(=O)C(=O)C1c1nc2ccccc2s1`: the GI50 in test [1] is > 100 µM (inactive); in test [16], > 100 µM (inactive); in test [2], > 100 µM (inactive); in test [3] it was > 100 µM (inactive); in test [4] it was 56.5 µM (inactive); in test [5] it was > 100 µM (inactive). Moreover, the GI50 in test [6], in [7], in test [17], in test [8], in [10] and in [11] was > 100 µM (inactive) in each case. The GI50 in test [12] is 44 µM (inactive); in test [13], > 100 µM (inactive); in test [14] it was > 100 µM (inactive); in test [15], > 100 µM (inactive).
Take `CCS(=O)(=O)Nc1ccc(Nc2c3ccccc3nc3ccccc23)c(OC)c1`: the GI50 in test [1] was 1.72 µM (inactive); in [2] it was 1.99 µM (inactive); in test [3], 0.203 µM (active); in test [4] it was 0.885 µM (active); in test [5], 7.94 µM (inactive); in [6], 1.43 µM (inactive). The GI50 is 0.24 µM (active) in test [7]; 0.0962 µM (active) in test [17]; 0.13 µM (active) in [8]; 5 µM (inactive) in [9]; 2.03 µM (inactive) in test [10]; 0.067 µM (active) in test [11]. Moreover, the GI50 was 0.273 µM (active) in test [12], 1.2 µM (inactive) in [13] and 0.284 µM (active) in test [14].
Take `COC(=O)N/N=C(\C)c1sc(-c2nc(C)c(/C(C)=N/NC(=O)OC)s2)nc1C`: the GI50 in test [1], in test [16], in [2], in test [3], in test [4] and in [5] was > 100 µM (inactive) in each case. The GI50 in [6], in [7], in test [17], in test [8], in [10] and in test [11] was > 100 µM (inactive) throughout. In addition, the GI50 was > 100 µM (inactive) in [12], 41.7 µM (inactive) in [13], > 100 µM (inactive) in test [14] and > 100 µM (inactive) in [15].
As to `COc1cccc(/C=C2\CCC(C)(CN(C)C)C2=O)c1` (configuration not stated), the GI50 in test [1] is > 100 µM (inactive); in test [16], 98.9 µM (inactive); in test [2], > 100 µM (inactive); in test [3], > 100 µM (inactive); in [4], > 100 µM (inactive); in [5] it was > 100 µM (inactive). Further, the GI50 is 23 µM (inactive) in test [6]; > 100 µM (inactive) in [7]; 29.4 µM (inactive) in test [17]; > 100 µM (inactive) in test [8]; > 100 µM (inactive) in [10]; > 100 µM (inactive) in [11]. The GI50 is 34.4 µM (inactive) in test [12], 30.7 µM (inactive) in [13], > 100 µM (inactive) in test [14] and 46.5 µM (inactive) in test [15].
As to `O=C(CCN(C(=O)O)S(=O)(=O)c1ccc(NC(=O)c2ccccc2)cc1)Nc1ccccc1`, the GI50 in test [1] is > 100 µM (inactive); in test [16], > 100 µM (inactive); in [2], > 100 µM (inactive); in test [3] it was > 100 µM (inactive); in test [4], > 96.2 µM (inactive); in test [5], > 100 µM (inactive). The GI50 in test [6], in [7], in [17], in [8], in test [10] and in test [11] was > 100 µM (inactive) throughout. Further, the GI50 in test [12], in [13], in test [14] and in test [15] was > 100 µM (inactive) throughout.
Turning to `C[Si](C)(C)[C@@]1([Se]c2ccccc2)CC[C@@H]1C(=O)c1ccccc1`, the GI50 was 32.6 µM (inactive) in test [1]; 54 µM (inactive) in [16]; 19 µM (inactive) in test [2]; 33.7 µM (inactive) in [3]; 50.5 µM (inactive) in test [4]; > 100 µM (inactive) in test [5]. For the same molecule, the GI50 was 71.8 µM (inactive) in test [6]; > 100 µM (inactive) in test [7]; 72.1 µM (inactive) in test [17]; 51.3 µM (inactive) in [8]; 84.1 µM (inactive) in test [10]; > 100 µM (inactive) in test [11]. Further, the GI50 was 35.8 µM (inactive) in test [12], 23.7 µM (inactive) in test [13], 61 µM (inactive) in [14] and 49.3 µM (inactive) in [15].
`CC12O[Te]34OC1(C)C(C)(O3)C2(C)O4`: the GI50 is 0.016 µM (active) in [1]; 14.8 µM (inactive) in test [16]; 14.8 µM (inactive) in test [2]; 16.4 µM (inactive) in test [3]; 12.5 µM (inactive) in test [4]; 11.9 µM (inactive) in test [5]. For the same molecule, the GI50 is 32.4 µM (inactive) in test [6]; > 8.75 µM (inactive) in [7]; 9.71 µM (inactive) in test [17]; 3.86 µM (inactive) in test [8]; 17.9 µM (inactive) in test [10]; 20.4 µM (inactive) in test [11]. The GI50 was 14.6 µM (inactive) in [12], 11.8 µM (inactive) in [13], > 8.75 µM (inactive) in test [14] and 20.1 µM (inactive) in [15].
